One experiment concerns A549. Kind of experiment: Compound was tested for cytotoxic activity against A-549 human lung carcinoma (ATCC:CCL-185). The format is functional, cell-based.
Experiment [1] concerns P388. In words: Compound was tested for cytotoxic activity against P-388D1 mouse lymphoma (ATCC: CCL-46). The format is functional, cell-based.
The next experiment concerns SK-MEL-28. In words: Compound was tested for cytotoxic activity against SK-MEL-28 human melanoma (ATCC:HTB-72). The format is functional, cell-based.
The species named for a further experiment is Homo sapiens. In words: (§1) Compound was tested for cytotoxic activity against […] human colon carcinoma (ATCC:HTB-38). The format is functional.
For another experiment, the system named is HT-29. The experiment is described as §1. The format is functional, cell-based.
For experiment [2], the system named is P388. Kind of experiment: Compound was tested for cytotoxic activity against P-388D1 mouse lymphoma (ATCC:CCL-46). The format is functional, cell-based.

By IC50 is commonly meant the point on the concentration scale where inhibition reaches its midpoint. A higher IC50 goes with weaker potency.

The structures appear in SMILES notation. ≈ marks a conversion by molar mass, not a printed value. Where “and” joins values, the source holds several entries; their conditions need not be identical. Equal entries are not always repeated.

As to `COC(=O)[C@]1(C)CC[C@]2(C)CC[C@]3(C)C4CC(=O)c5c(cc(O)c(O)c5C=O)[C@]4(C)CC[C@@]3(C)C2C1` (stereo partly specified), the IC50 in the experiment on A549 is 0.5 µg/mL and 1 µM; in the experiment with P388 [1], 1000 nM; with SK-MEL-28, 0.5 µg/mL and 1 µM; in the experiment listed under Homo sapiens, 2000 nM; with HT-29, 1 µg/mL (≈ 2.01 µM); in the experiment with P388 [2] it was 0.5 µg/mL (≈ 1.01 µM).
Consider `COC(=O)[C@]1(C)CC[C@]2(C)CC[C@]3(C)C4CC(=O)c5c(cc(OC(C)=O)c(OC(C)=O)c5C=O)[C@]4(C)CC[C@@]3(C)C2C1` (stereo partly specified), for which the IC50 in the experiment with A549 was 0.25 µg/mL and 400 nM; in the experiment with P388 [1], 400 nM; with SK-MEL-28, 0.25 µg/mL and 400 nM; with HT-29, 0.25 µg/mL and 400 nM; with P388 [2], 0.25 µg/mL (≈ 0.431 µM).
Regarding `C[C@@H]1CC2[C@]3(C)CCC4(C)C(=CC(=O)c5c4cc(O)c(O)c5C(=O)O)[C@@]3(C)CC[C@@]2(C)[C@H](O)C1=O` (single isomer, unassigned), the IC50 is 2.5 µg/mL and 5.2 µM in the experiment with A549; 5200 nM with P388 [1]; 2.5 µg/mL and 5.2 µM with SK-MEL-28; 2.5 µg/mL and 5.2 µM in the experiment with HT-29; 2.5 µg/mL (≈ 5.18 µM) in the experiment with P388 [2].
In the case of `COc1c(O)cc2c(c1C(=O)O)C(=O)C=C1C2(C)CC[C@@]2(C)C3C[C@@H](C)C(=O)[C@@H](O)[C@]3(C)CC[C@]12C` (single isomer, unassigned), the IC50 with A549 is 10 µg/mL and 20.7 µM; in the experiment with P388 [1], 20700 nM; in the experiment with SK-MEL-28 it was 10 µg/mL and 20.7 µM; in the experiment on HT-29, 10 µg/mL and 20.7 µM; in the experiment with P388 [2], 10 µg/mL (≈ 20.1 µM).
Regarding `CC1=C(O)C(=O)C=C2C1=CC(O)[C@H]1[C@@]2(C)CC[C@@]2(C)C3C[C@@H](C)C(=O)[C@@H](O)[C@]3(C)CC[C@]12C` (single isomer, unassigned), the IC50 with A549 is 1 µg/mL and 2 µM; in the experiment on P388 [1], 1000 nM; in the experiment with SK-MEL-28, 1 µg/mL and 2 µM; in the experiment with HT-29 it was 1 µg/mL and 2 µM; in the experiment with P388 [2], 0.5 µg/mL (≈ 1.1 µM).

The values above are taken from ChEMBL document CHEMBL1133156, “Macrocarpins A-D, new cytotoxic nor-triterpenes from Maytenus macrocarpa” (Bioorg Med Chem Lett, 2000).
